Earlier results, collected in publication PMC6957711 (Journal of Alzheimer's Disease, 2020).

Key:
[1] = Phase III clinical studies
tau = details: in vitro

Structure (SMILES)	clinical endpoints [1]	tau fibril formation (tau)	tau oligomer formation (tau)
CN(C)c1ccc2c(c1)Sc1cc(N(C)C)ccc1N2.CS(=O)(=O)O.CS(=O)(=O)O [LMTX, Leuco-Methylthioninium Bis(Hydromethanesulphonate)]	failed to meet its clinical endpoints		
CN(C)c1ccc2nc3ccc(=[N+](C)C)cc-3sc2c1 [methylene blue]		inhibits	accelerates
